The source of these data is patent US7273614B2 (priority 1993, dated 2007).

Entries after “also recorded” stand apart in the source; their conditions may differ. Where two headings read alike, the source gives them in different places. Peptide text beside a SMILES is read from it.

One data set relates to HIV-1/IIIb. The data set can be described thus: Anti-HIV assays of DP107 and DP178 truncations and mutations. The format is cell-based. The settings on record: FIGS. 49, 50. The text has this:
Anti-HIV assays: The antiviral assays performed were as those described, above, in Section 6.1. Assays utilized HIV-1/IIIb and/or HIV-2 NIHZ isolates. Purified peptides were used, unless otherwise noted in FIGS. 49A-L.

Data set [1] deals with viral gp41 of HIV-1 (HIV-1IIIB) (HIV-1 IIIB) (UniProt P03377). Nature of the data set: cell-based or functional assay.
A further data set relates to HIV-2. The data set can be described thus: Cell fusion assay: HIV-2 mediated syncytia formation. The format is cell-based. The settings on record: failed to block at highest concentration; FIG. 5.
For a further data set, the system named is HIV-1IIIB. The format is cell-based. To be noted: 10 nM peptide. Here is the method:
CEM cells (7×10^4) were incubated with HIV-1IIIB chronically infected CEM cells (10^4) in 96-well flat-bottomed half-area plates (Costar) in 100 μl culture medium. Peptide and fusion proteins at various concentrations in 10 μl culture medium were incubated with the cell mixtures at 37° C. for 24 hours. Multinucleated syncytia were estimated with microscopic examination.

The next data set deals with HIV-2NIHZ. Nature of the data set: Cell free virus infection assay (CEM CD4+ cells, reverse transcriptase readout). The data set is classed as cell-based. Here is the method: (§1) Synthetic peptides were incubated at 37° C. with either 247 TCID50 (for experiment depicted in FIG. 2), or 62 TCID50 (for experiment depicted in FIG. 3) units of HIV-1LAI virus or 25 TCID50 units of HIV-2NIHZ and CEM CD4+ cells at peptide concentrations of 0, 0.04, 0.4, 4.0, and 40 μg/ml for 7 days. The resulting reverse transcriptase (RT) activity in counts per minute was determined using the assay described, below, in Section 6.1.5. See, Reed, L. J. et al., 1938, Am. J. Hyg. 27: 493-497 for an explanation of TCID50 calculations.
(§2) The micro-reverse transcriptase (RT) assay was adapted from Goff et al. (Goff, S. et al., 1981, J. Virol. 38:239-248) and Willey et al. (Willey, R. et al., 1988, J. Virol. 62:139-147). Supernatants from virus/cell cultures are adjusted to 1% Triton-X100. A 10 μl sample of supernatant was added to 50 μl of RT cocktail in a 96-well U-bottom microtitre plate and the samples incubated at 37° C. for 90 min. The RT cocktail contained 75 mM KCl, 2 mM dithiothreitol, 5 mM MgCl2, 5 μg/ml poly A (Pharmacia, cat. No. 27-4110-01), 0.25 units/ml oligo dT (Pharmacia, cat. No. 27-7858-01), 0.05% NP40, 50 mM Tris-HCl, pH 7.8, 0.5 μM non-radioactive dTTP, and 10 μCi/ml ^32P-dTTP (Amersham, cat. No. PB.10167). […]

For another data set, the system named is Fab-d. Nature of the data set: ELISA analysis of DP178 binding to the leucine zipper motif of gp41 (Fab-d ELISA). Details: species or system human. To be noted: FIG. 10.
The next data set has as its system CEM cells. The data set can be described thus: Cell proliferation and toxicity assay. The data set is classed as cell-based. As for the experimental part:
Cell proliferation and toxicity assay: Approximately 3.8×10^5 CEM cells for each peptide concentration were incubated for 3 days at 37° C. in T25 flasks. Peptides tested were DP178 (SEQ ID:1) and DP-116 (SEQ ID:9), as described in FIG. 1. Peptides were synthesized as described, above, in Section 6.1. The concentrations of each peptide used were 0, 2.5, 10, and 40 μg/ml. Cell counts were taken at incubation times of 0, 24, 48, and 72 hours.

Data set [2] deals with HIV-1LAI. Nature of the data set: Cell free virus infection assay (CEM CD4+ cells, reverse transcriptase readout). The data set is classed as cell-based. The settings on record: FIG. 1 legend. Here is the method: as §1, §2
Data set [3] concerns HIV-1LAI. To be noted: Wild et al. 1992; cited from earlier work.

Protocol for Fab-d: Each well was washed three times with distilled water then blocked with 3% bovine serum albumin (BSA) for 2 hours. After blocking, peptides with 0.5% BSA in TBST (40 mM Tris-HCl pH7.5, 150 mM NaCl, 0.05% Tween 20) were added to the ELISA plates and incubated at room temperature for 1 hour. After washing three times with TBST, Fab-d was added at a concentration of 10 ng/ml with 0.5% BSA in TBST. The plates were washed three times with TBST after incubation at room temperature for 1 hour. Horse radish peroxidase (HRP) conjugated goat antihuman Fab antiserum at a 2000 fold dilution in TBST with 0.5% BSA was added to each well and incubated at room temperature for 45 minutes. The plates were then washed four times with TBST. The peroxidase substrate o-phenylene diamine (2.5 mg/ml) and 0.15% H2O2 were added to develop the color. The reaction was stopped with an equal volume of 4.5 N H2SO4 after incubation at room temperature for 10 minutes. The optical density of the stopped reaction mixture was measured with a micro plate reader (Molecular Design) at 490 nm.

Turning to “T-590: SEQ ID NO. 167; DP178 truncation/mutation peptide (CLELDKWASLANWFC)”, the “anti-HIV antiviral activity (in words)” value in the data set with HIV-1/IIIb is “high level of antiviral activity”.

On to “T-378: SEQ ID NO. 168; DP178 truncation/mutation peptide (CLELDKWASLWNFFC)”, for which the “anti-HIV antiviral activity (in words)” value in the data set on HIV-1/IIIb is “high level of antiviral activity”.

Turning to “M41, maltose binding protein fusion with the extracellular domain of gp41 (540-686) (from UniProt P03377 540-686)”, in [1], the Cell fusion (IC90) is more than 50000 nM and the HIV infectivity (IC90) is more than 16000 nM.

As for “T-591: SEQ ID NO. 168; DP178 truncation/mutation peptide (CLELDKWASLWNFFC)”, the “anti-HIV antiviral activity (in words)” value in the data set with HIV-1/IIIb is reported as “high level of antiviral activity”.

“H-YTNTIYTLLEESQNQQEKNEQELLELDKWASLWNWF-OH [DP-185]”: in the data set with HIV-1, the “HIV-1-mediated syncytia formation (in words)” value is given as “block HIV-1-mediated syncytia formation”. Further, the “concentration with inhibitory activity on HIV-1-induced syncytia formation” value in the data set on HIV-1 (lowest concentration tested, FIG. 4) is not above 312.5 ng/mL.

Turning to “T-381: SEQ ID NO. 164; DP178 truncation/mutation peptide (RMKQLEDKVEELLSKNYHLENELELDKWASLWNWF)”, the “anti-HIV antiviral activity (in words)” value with HIV-1/IIIb is “high level of antiviral activity”.

In data set [1], “DP178 (SEQ ID NO:1), synthetic peptide corresponding to amino acids 638 to 673 of HIV-1LAI gp41” returned a Cell fusion (IC90) of 1 nM and an HIV infectivity (IC90) of 80 nM.

Regarding Enfuvirtide, the “peptide concentration blocking HIV-2 mediated syncytia formation” value with HIV-2 is more than 10 µg/mL. Also, the “concentration affording complete protection against syncytia formation (lowest concentration tested)” value with HIV-1 (HIV-1LAI, FIG. 4) is not above 12.5 ng/mL; in the data set on HIV-1 (HIV-1MN, HIV-1RF, HIV-1SF2, FIG. 4), not above 100 ng/mL. The “concentration completely blocking virus induced syncytia formation (lowest effective inhibitory concentration)” value in the data set with HIV-1 (HIV-1 mediated cell-cell fusion) fell in the range of 1 to 10 ng/mL. Further, the “selectivity as inhibitor of HIV-1-mediated over HIV-2-mediated cell fusion” value in the data set with HIV-1 (HIV-1 vs HIV-2) was found to be 4 log. Moreover, the “peptide concentration blocking HIV-1-mediated syncytia formation” value with HIV-1 (HIV-1 vs HIV-2 comparison, FIG. 5) is reported as “below 1 ng/ml”. Also, in the data set on HIV-1IIIB, the “syncytia in the presence of peptide (in words)” value is “no observable syncytia”. For the same molecule, the “IC50 for HIV-2NIHZ (in words)” value in the data set with HIV-2NIHZ (25 TCID50 HIV-2NIHZ, CEM cells, 7 days, FIG. 3) is listed as “much higher IC50”. For the same molecule, the “potency as HIV-1 inhibitor relative to HIV-2 inhibitor” value in the data set on HIV-2NIHZ (HIV-1LAI vs HIV-2NIHZ cell-free infection) was “two logs more potent”. The “Fab-d binding (in words)” value with Fab-d is reported as “failed to bind”.

“T-235: SEQ ID NO. 162; DP178 truncation/mutation peptide (RMKQLEDKVEELLSKLELDKWASLWNWF)”: the “anti-HIV antiviral activity (in words)” value with HIV-1/IIIb is on record as “high level of antiviral activity”.

“T-611: SEQ ID NO. 175; DP178 truncation/mutation peptide (LKLDKWASLWNWF)”: the “anti-HIV antiviral activity (in words)” value in the data set with HIV-1/IIIb is given as “high level of antiviral activity”.

In [1], “DP107 (SEQ ID NO: 89), synthetic peptide corresponding to amino acids 558 to 595 of HIV-1LAI gp41” gave a Cell fusion (IC90) of 1000 nM and an HIV infectivity (IC90) of 1000 nM.

Consider “T-377: SEQ ID NO. 167; DP178 truncation/mutation peptide (CLELDKWASLANWFC)”, for which, in the data set with HIV-1/IIIb, the “anti-HIV antiviral activity (in words)” value was “high level of antiviral activity”.

Regarding enfuvirtide, the “non-cytotoxic concentration relative to HIV inhibitory dose” value in the data set on CEM cells (40 μg/ml vs HIV inhibitory dose) is reported as “greater than 3 log”. In addition, the “cytotoxic effects on cells in culture (in words)” value in the data set with CEM cells (up to highest peptide concentration tested, 40 μg/ml, CEM cells, 3 days) is on record as “not toxic to cells; also recorded: non-cytotoxic; also recorded: no cytotoxic effects”.

Take `CC[C@H](C)[C@H](NC(=O)[C@H](CCCNC(=N)N)NC(=O)[C@H](C)NC(=O)[C@H](CCC(N)=O)NC(=O)[C@H](CC(C)C)NC(C)=O)C(=O)N[C@@H](CC(C)C)C(=O)N[C@@H](C)C(=O)N[C@H](C(=O)N[C@@H](CCC(=O)O)C(=O)N[C@@H](CCCNC(=N)N)C(=O)N[C@@H](Cc1ccc(O)cc1)C(=O)N[C@@H](CC(C)C)C(=O)N[C@@H](CCCCN)C(=O)N[C@@H](CC(=O)O)C(=O)N[C@@H](CCC(N)=O)C(=O)N[C@@H](CCC(N)=O)C(=O)N[C@@H](CCC(N)=O)C(N)=O)C(C)C` [DP-116] (Ac-LQARILAVERYLKDQQQ-NH2): the “inhibition of HIV-1 cell free virus infection (in words)” value in the data set on HIV-1LAI [2] is reported as “negative for inhibition of HIV-1 infection”. Besides, the “activity in cell-free HIV-1 infection assay, previously shown (in words)” value with HIV-1LAI [3] is “inactive; also recorded: ineffective as a HIV inhibitor”.

Consider “T-677: SEQ ID NO. 165; DP178 truncation/mutation peptide (FWNWLSAWKDLELYPGSLELDKWASLWNWF)”, for which the “anti-HIV antiviral activity (in words)” value in the data set on HIV-1/IIIb is reported as “high level of antiviral activity”.
